Tested on: PC3 cells
Assay: xCELLigence RTCA real-time cell invasion assay (CIM plate, Matrigel) on PC3 prostate cancer cells
Format: cell-based
Conditions: Homo sapiens, PC-3, compound 25 uM to 1 uM, cell index monitored for 72 hours, four-parameter dose-response curve, read-out: IC50, Effect of compounds on the invention on prostate cancer cells
Method: The media antibiotics and serum were purchased from Invitrogen (Life Technologies). PC3 cells were purchased from ATCC (Granville, NSW, Australia). PC3 cells were expanded in cell culture T75 flasks with vented cap and then preserved in low passage number. The medium used for PC3 cells was RPMI (GlutaMAX) supplemented with 10% FCS and 1% penicillin/streptomycin (culture media). The cells were maintained at 37° C. in a humidified 95% (v/v) air/5% (v/v) CO2 environment and were grown up to 80% confluence.
XCELLigence® real-time cell analysis (RTCA) instrument (ACEA Biosciences), 16-well ACEA CIM-Plates, 16-well ACEA E-Plat and assembly tool were purchased from ELITechGroup empowering IVD (Braeside, Australia). The Matrigel was purchased from Corning (Australia).
To measure cell invasion under compound treatment the upper chamber of the CIM plate was coated with 5% Matrigel diluted in SF RPMI (20 μl) and incubated in a 37° C. tissue culture incubator for four hours. Using the assembly tool to support the chambers the lower chamber was filled with (160 μl) of culture media containing the compound in specific concertation from 25 uM to 1 uM and two controls (DMSO 0.1% and ESFAM 4C 10 uM) (see the schematic in FIG. 1). Once the upper chamber was placed on the top of the lower chamber it was loaded with (40 μl) serum-free (SF) RPMI containing the compound as previously stated. After one hour calibration in 37° C., plates were placed into the xCELLigence station, and the base-line electric impedance was measured to confirm that all wells and connections were working properly. In case of connection problem, the software automatically informs the researcher about the nature of the problem in the message section. Subsequently cells were trypsinized and upon harvesting and counting they were diluted in SF RPMI to desired density (3×10^4) and seeded (100 μl) in the wells. After 30 minutes of incubation in room-temperature to allow cell attachment the plates were loaded in the xCELLigence RTCA DP machine. The cell invasion was monitored in real-time for the duration of 72 hours. […]
The xCELLigence system automatically monitored the electrical impedance value of each well and expressed as a cell index (CI) value for the duration of 72 hours. The data for treatments was automatically grouped as the mean±standard deviation. The software version used in these experiments is 1.2.1. The electronic record of the experimental data is automatically saved in file that cannot be altered or changed by the researcher.
Statistical analysis was performed using Microsoft® Office EXCEL and GraphPad Prism 7. The IC50 was calculated from the four-parameter dose-response curve (log(inhibitor) vs. response-variable slopes). Where the row-data was inserted in GraphPad Prism 7 (Dose response x-log(dose)) and analysed for XY nonlinear regression (curve fit), dose response-inhibition, log(inhibitor) vs response variable slope (four parameters). For the IC90 calculation the log(IC50)=log(IC90)-(1/HillSlope)*log(9) equation was used in EXCEL based on the raw data extracted from xCELLigence system and the dose-response curve.

SMILES | IC50 [µM]
CCOc1cccc(NC(=O)c2cc3nc(N4Cc5ccccc5C4)cc(-c4cn[nH]c4)n3n2)c1 [Compound 27, N-(3-ethoxyphenyl)-5-(isoindolin-2-yl)-7-(1H-pyrazol-4-yl)pyrazolo[1,5-a]pyrimidine-2-carboxamide] | 1.99
CC(C)Oc1cccc(NC(=O)c2cc3nc(N4Cc5ccccc5C4)cc(-c4cn[nH]c4)n3n2)c1 [Compound 28, 5-(isoindolin-2-yl)-N-(3-isopropoxyphenyl)-7-(1H-pyrazol-4-yl)pyrazolo[1,5-a]pyrimidine-2-carboxamide] | 2.03
CN(Cc1ccccc1)c1cc(-c2cn[nH]c2)n2nc(C(=O)Nc3ccc(Cl)cc3)cc2n1 [Compound 29, 5-(benzyl(methyl)amino)-N-(4-chlorophenyl)-7-(1H-pyrazol-4-yl)pyrazolo[1,5-a]pyrimidine-2-carboxamide] | 3.58
CN(Cc1ccccc1)c1cc(-c2cn[nH]c2)n2nc(C(=O)Nc3cccc(Cl)c3)cc2n1 [Compound 30, 5-(benzyl(methyl)amino)-N-(3-chlorophenyl)-7-(1H-pyrazol-4-yl)pyrazolo[1,5-a]pyrimidine-2-carboxamide] | 1.61
CN(Cc1ccccc1)c1cc(-c2cn[nH]c2)n2nc(C(=O)Nc3ccccc3Cl)cc2n1 [Compound 31, 5-(benzyl(methyl)amino)-N-(2-chlorophenyl)-7-(1H-pyrazol-4-yl)pyrazolo[1,5-a]pyrimidine-2-carboxamide] | 2.21
CN(Cc1ccccc1)c1cc(-c2cn[nH]c2)n2nc(C(=O)Nc3ccc(C(F)(F)F)cc3)cc2n1 [Compound 32, 5-(benzyl(methyl)amino)-7-(1H-pyrazol-4-yl)-N-(4-(trifluoromethyl)phenyl)pyrazolo[1,5-a]pyrimidine-2-carboxamide] | 3.04
CN(Cc1ccccc1)c1cc(-c2cn[nH]c2)n2nc(C(=O)Nc3cccc(C(F)(F)F)c3)cc2n1 [Compound 33, 5-(benzyl(methyl)amino)-7-(1H-pyrazol-4-yl)-N-(3-(trifluoromethyl)phenyl)pyrazolo[1,5-a]pyrimidine-2-carboxamide] | 2.59
CN(Cc1ccccc1)c1cc(-c2cn[nH]c2)n2nc(C(=O)Nc3ccccc3C(F)(F)F)cc2n1 [Compound 34, 5-(benzyl(methyl)amino)-7-(1H-pyrazol-4-yl)-N-(2-(trifluoromethyl)phenyl)pyrazolo[1,5-a]pyrimidine-2-carboxamide] | 8.97
CN(Cc1ccccc1)c1cc(-c2cn[nH]c2)n2nc(C(=O)Nc3ccc(F)cc3)cc2n1 [Compound 35, 5-(benzyl(methyl)amino)-N-(4-fluorophenyl)-7-(1H-pyrazol-4-yl)pyrazolo[1,5-a]pyrimidine-2-carboxamide] | 1.4
CN(Cc1ccccc1)c1cc(-c2cn[nH]c2)n2nc(C(=O)Nc3cccc(F)c3)cc2n1 [Compound 36, 5-(benzyl(methyl)amino)-N-(3-fluorophenyl)-7-(1H-pyrazol-4-yl)pyrazolo[1,5-a]pyrimidine-2-carboxamide] | 1.47
CN(Cc1ccccc1)c1cc(-c2cn[nH]c2)n2nc(C(=O)Nc3ccccc3F)cc2n1 [Compound 37, 5-(benzyl(methyl)amino)-N-(2-fluorophenyl)-7-(1H-pyrazol-4-yl)pyrazolo[1,5-a]pyrimidine-2-carboxamide] | 3.1
COc1ccc(CN(C)c2cc(-c3cn[nH]c3)n3nc(C(=O)Nc4ccc(Cl)cc4)cc3n2)cc1 [Compound 38, N-(4-chlorophenyl)-5-((4-methoxybenzyl)(methyl)amino)-7-(1H-pyrazol-4-yl)pyrazolo[1,5-a]pyrimidine-2-carboxamide] | 4.36
COc1cccc(CN(C)c2cc(-c3cn[nH]c3)n3nc(C(=O)Nc4ccc(Cl)cc4)cc3n2)c1 [Compound 39, N-(4-chlorophenyl)-5-((3-methoxybenzyl)(methyl)amino)-7-(1H-pyrazol-4-yl)pyrazolo[1,5-a]pyrimidine-2-carboxamide] | 8.46
COc1ccccc1CN(C)c1cc(-c2cn[nH]c2)n2nc(C(=O)Nc3ccc(Cl)cc3)cc2n1 [Compound 40, N-(4-chlorophenyl)-5-((2-methoxybenzyl)(methyl)amino)-7-(1H-pyrazol-4-yl)pyrazolo[1,5-a]pyrimidine-2-carboxamide] | 3.96
CN(Cc1ccc(C(F)(F)F)cc1)c1cc(-c2cn[nH]c2)n2nc(C(=O)Nc3ccc(Cl)cc3)cc2n1 [Compound 41, N-(4-chlorophenyl)-5-(methyl(4-(trifluoromethyl)benzyl)amino)-7-(1H-pyrazol-4-yl)pyrazolo[1,5-a]pyrimidine-2-carboxamide] | 9.86
CN(Cc1cccc(C(F)(F)F)c1)c1cc(-c2cn[nH]c2)n2nc(C(=O)Nc3ccc(Cl)cc3)cc2n1 [Compound 42, N-(4-chlorophenyl)-5-(methyl(3-(trifluoromethyl)benzyl)amino)-7-(1H-pyrazol-4-yl)pyrazolo[1,5-a]pyrimidine-2-carboxamide] | 2.86
CN(Cc1ccccc1C(F)(F)F)c1cc(-c2cn[nH]c2)n2nc(C(=O)Nc3ccc(Cl)cc3)cc2n1 [Compound 43, N-(4-chlorophenyl)-5-(methyl(2-(trifluoromethyl)benzyl)amino)-7-(1H-pyrazol-4-yl)pyrazolo[1,5-a]pyrimidine-2-carboxamide] | 6.09
CN(Cc1ccc(Cl)cc1)c1cc(-c2cn[nH]c2)n2nc(C(=O)Nc3ccc(Cl)cc3)cc2n1 [Compound 44, 5-((4-chlorobenzyl)(methyl)amino)-N-(4-chlorophenyl)-7-(1H-pyrazol-4-yl)pyrazolo[1,5-a]pyrimidine-2-carboxamide] | 12.2
CN(Cc1cccc(Cl)c1)c1cc(-c2cn[nH]c2)n2nc(C(=O)Nc3ccc(Cl)cc3)cc2n1 [Compound 45, 5-((3-chlorobenzyl)(methyl)amino)-N-(4-chlorophenyl)-7-(1H-pyrazol-4-yl)pyrazolo[1,5-a]pyrimidine-2-carboxamide] | 10.8
CN(Cc1ccccc1Cl)c1cc(-c2cn[nH]c2)n2nc(C(=O)Nc3ccc(Cl)cc3)cc2n1 [Compound 46, 5-((2-chlorobenzyl)(methyl)amino)-N-(4-chlorophenyl)-7-(1H-pyrazol-4-yl)pyrazolo[1,5-a]pyrimidine-2-carboxamide] | 7
O=C(Nc1cccc(N2CCOCC2)c1)c1cc2nc(N3Cc4ccccc4C3)cc(-c3cn[nH]c3)n2n1 [Compound 47, 5-(isoindolin-2-yl)-N-(3-morpholinophenyl)-7-(1H-pyrazol-4-yl)pyrazolo[1,5-a]pyrimidine-2-carboxamide] | 6.18
CN1CCN(c2cccc(NC(=O)c3cc4nc(N5Cc6ccccc6C5)cc(-c5cn[nH]c5)n4n3)c2)CC1 [Compound 48, 5-(isoindolin-2-yl)-N-(3-(4-methylpiperazin-1-yl)phenyl)-7-(1H-pyrazol-4-yl)pyrazolo[1,5-a]pyrimidine-2-carboxamide] | 2.77
CC(=O)N1CCN(c2cccc(NC(=O)c3cc4nc(N5Cc6ccccc6C5)cc(-c5cn[nH]c5)n4n3)c2)CC1 [Compound 49, N-(3-(4-acetylpiperazin-1-yl)phenyl)-5-(isoindolin-2-yl)-7-(1H-pyrazol-4-yl)pyrazolo[1,5-a]pyrimidine-2-carboxamide] | 5.85
O=C(Nc1cccc(OC2CCC2)c1)c1cc2nc(N3Cc4ccccc4C3)cc(-c3cn[nH]c3)n2n1 [Compound 50, N-(3-cyclobutoxyphenyl)-5-(isoindolin-2-yl)-7-(1H-pyrazol-4-yl)pyrazolo[1,5-a]pyrimidine-2-carboxamide] | 1.46
COc1cc(NC(=O)c2cc3nc(N4Cc5ccccc5C4)cc(-c4cn[nH]c4)n3n2)cc(OC)c1 [Compound 51, N-(3,5-dimethoxyphenyl)-5-(isoindolin-2-yl)-7-(1H-pyrazol-4-yl)pyrazolo[1,5-a]pyrimidine-2-carboxamide] | 3.55
COc1cc(Cl)cc(NC(=O)c2cc3nc(N4Cc5ccccc5C4)cc(-c4cn[nH]c4)n3n2)c1 [Compound 52, N-(3-chloro-5-methoxyphenyl)-5-(isoindolin-2-yl)-7-(1H-pyrazol-4-yl)pyrazolo[1,5-a]pyrimidine-2-carboxamide] | 5.52
COc1cc(NC(=O)c2cc3nc(N4Cc5ccccc5C4)cc(-c4cn[nH]c4)n3n2)ccc1Cl [Compound 53, N-(4-chloro-3-methoxyphenyl)-5-(isoindolin-2-yl)-7-(1H-pyrazol-4-yl)pyrazolo[1,5-a]pyrimidine-2-carboxamide] | 2.76

— patent US12215112B2, “CD151 inhibitors” (ESFAM BIOTECH PTY LTD, priority 2020, dated 2025)
